Results from PubChem BioAssay (NCI).
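Protocol summary: plate cells (96-well), add compound at 5 concentrations, incubate 48 h, interpolate endpoints linearly. The concentration for full growth arrest is given as TGI.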

Tests used:
Assay in all cases: DTP human tumour cell line panel, 48 h
[1] = system: MDA-MB-231 breast
[2] = system: TK-10 renal
[3] = system: HT29 colon
[4] = system: UO-31 renal
[5] = system: OVCAR-8 ovarian
[6] = system: NCI-H522 lung
[7] = system: SNB-19 CNS
[8] = system: NCI-H23 lung
[9] = system: NCI-H226 lung
[10] = system: HCC-2998 colon
[11] = system: KM12 colon
[12] = system: SF-268 CNS
[13] = system: EKVX NSCLC
[14] = system: IGROV1 ovarian
[15] = system: HS 578T breast
[16] = system: SK-MEL-28 melanoma
[17] = system: MDA-MB-435
[18] = system: M14 melanoma
[19] = system: 786-0 renal
[20] = system: UACC-62 melanoma
[21] = system: U251 CNS
[22] = system: COLO 205 colon
[23] = system: HCT-15 colon
[24] = system: A498 renal
[25] = system: SK-MEL-2 melanoma
[26] = system: CCRF-CEM leukemia
[27] = system: RPMI-8226 leukemia
[28] = system: T-47D breast
[29] = system: HOP-92 NSCLC
[30] = system: MDA-N
[31] = system: SF-539 CNS
[32] = system: MCF7 breast
[33] = system: SW-620 colon
[34] = system: MALME-3M melanoma
[35] = system: NCI/ADR-RES ovarian
[36] = system: A549 NSCLC
[37] = system: OVCAR-4 ovarian
[38] = system: PC-3 prostate
[39] = system: HCT-116 colon
[40] = system: SK-MEL-5 melanoma
[41] = system: SR leukemia
[42] = system: SN12C renal
[43] = system: RXF 393 renal
[44] = system: MOLT-4 leukemia
[45] = system: NCI-H460 lung
[46] = system: HL-60(TB) leukemia
[47] = system: BT-549 breast
[48] = system: SNB-75 CNS
[49] = system: HOP-62 NSCLC
[50] = system: SK-OV-3 ovarian
[51] = system: OVCAR-3 ovarian
[52] = system: K-562 leukemia
[53] = system: ACHN renal
[54] = system: CAKI-1 renal
[55] = system: DU-145 prostate
[56] = system: OVCAR-5 ovarian
[57] = system: SF-295 CNS
[58] = system: LOX IMVI melanoma
[59] = system: UACC-257 melanoma

Which results are given for `CN(C)CCCNc1c2c(nc3ccc(Cl)cc13)CCCC2`?
TGI [1]: 31.2 µM; TGI [2]: 36.4 µM; TGI [3]: 23.2 µM; TGI [4]: 28 µM; TGI [5]: 32.9 µM; TGI [6]: 26.8 µM; TGI [7]: 49.4 µM; TGI [8]: 30.6 µM; TGI [9]: 49.7 µM; TGI [10]: 16.3 µM; TGI [11]: 30.8 µM; TGI [12]: 28.6 µM; TGI [13]: 38.3 µM; TGI [14]: 37.5 µM; TGI [15]: 40.6 µM; TGI [16]: 35.3 µM; TGI [17]: 32.3 µM; TGI [18]: 28.1 µM; TGI [19]: 23.1 µM; TGI [20]: 32.1 µM; TGI [21]: 30.1 µM; TGI [22]: 21.5 µM; TGI [23]: 32.4 µM; TGI [24]: 32.6 µM; TGI [25]: 34.5 µM; TGI [26]: 43.7 µM; TGI [27]: 28.7 µM; TGI [28]: > 73 µM; TGI [29]: 27.8 µM; TGI [30]: 26.9 µM; TGI [31]: 28.5 µM; TGI [32]: 25.5 µM; TGI [33]: 31.8 µM; TGI [34]: 29.7 µM; TGI [35]: 45 µM; TGI [36]: 39.6 µM; TGI [37]: 43.8 µM; TGI [38]: 32.8 µM; TGI [39]: 21.5 µM; TGI [40]: 27.8 µM; TGI [41]: 6.88 µM; TGI [42]: 28.9 µM; TGI [43]: 28.6 µM; TGI [44]: 20.8 µM; TGI [45]: 23.9 µM; TGI [46]: 40.1 µM; TGI [47]: 43.7 µM; TGI [48]: 30.8 µM; TGI [49]: 30.5 µM; TGI [50]: 66.2 µM; TGI [51]: 34.9 µM; TGI [52]: 12 µM; TGI [53]: 45.5 µM; TGI [54]: 65.4 µM; TGI [55]: 31.9 µM; TGI [56]: 49 µM; TGI [57]: 29.7 µM; TGI [58]: 27.3 µM; TGI [59]: 30.7 µM
